Calls of active or inactive are those of the source. The calls are words filed in the database; no cut-off is given here.
Key:
[1] = tested on: Legionella pneumophila 130b; experiment: Inhibition of recombinant Legionella pneumophila 130b His6-tagged NTPDase (41 to 393 residues) expressed in Escherichia coli BL21(DE3) cells using ADP as substrate at 30 uM incubated for 10 mins by capillary electrophoresis method relative to control
[2] = Inhibition of recombinant Legionella pneumophila 130b His6-tagged NTPDase (41 to 393 residues) expressed in Escherichia coli BL21(DE3) cells using ADP as substrate incubated for 10 mins by capillary electrophoresis method
[3] = Inhibition of recombinant Legionella pneumophila 130b His6-tagged NTPDase (41 to 393 residues) expressed in Escherichia coli BL21(DE3) cells using ADP as substrate incubated for 10 mins by Cheng-Prusoff equation analysis
[4] = tested on: Legionella pneumophila 130b; experiment: Competitive inhibition of recombinant Legionella pneumophila 130b His6-tagged NTPDase (41 to 393 residues) expressed in Escherichia coli BL21(DE3) cells at 3 to 6 uM incubated for 10 mins in presence of varying levels of ADP by Lineweaver-Burk plot analysis
[5] = target: T1, Ectonucleoside triphosphate diphosphohydrolase 1 (Homo sapiens, UniProt P49961); experiment: Inhibition of recombinant human NTPDase1 expressed in CHO cells using ADP as substrate incubated for 10 mins by capillary electrophoresis method
T1 sequence (P49961 whole entry): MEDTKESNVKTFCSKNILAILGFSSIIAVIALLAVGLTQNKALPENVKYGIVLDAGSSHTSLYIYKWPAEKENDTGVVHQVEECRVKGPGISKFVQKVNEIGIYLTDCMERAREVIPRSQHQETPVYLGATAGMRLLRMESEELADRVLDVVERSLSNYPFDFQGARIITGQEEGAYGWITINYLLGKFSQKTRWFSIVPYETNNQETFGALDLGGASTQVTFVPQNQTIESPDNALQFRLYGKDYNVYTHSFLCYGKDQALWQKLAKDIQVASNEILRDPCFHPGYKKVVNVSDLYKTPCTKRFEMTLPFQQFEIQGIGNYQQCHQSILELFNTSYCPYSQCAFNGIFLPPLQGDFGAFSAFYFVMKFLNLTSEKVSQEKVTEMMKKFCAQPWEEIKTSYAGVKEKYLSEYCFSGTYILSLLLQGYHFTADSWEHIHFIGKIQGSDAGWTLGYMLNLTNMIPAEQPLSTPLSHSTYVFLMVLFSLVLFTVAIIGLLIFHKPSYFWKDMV

[6] = target: T2, Ectonucleoside triphosphate diphosphohydrolase 2 (Homo sapiens, UniProt Q9Y5L3); experiment: Inhibition of recombinant human NTPDase2 expressed in CHO cells using ADP as substrate incubated for 10 mins by capillary electrophoresis method
T2 sequence (Q9Y5L3 whole entry): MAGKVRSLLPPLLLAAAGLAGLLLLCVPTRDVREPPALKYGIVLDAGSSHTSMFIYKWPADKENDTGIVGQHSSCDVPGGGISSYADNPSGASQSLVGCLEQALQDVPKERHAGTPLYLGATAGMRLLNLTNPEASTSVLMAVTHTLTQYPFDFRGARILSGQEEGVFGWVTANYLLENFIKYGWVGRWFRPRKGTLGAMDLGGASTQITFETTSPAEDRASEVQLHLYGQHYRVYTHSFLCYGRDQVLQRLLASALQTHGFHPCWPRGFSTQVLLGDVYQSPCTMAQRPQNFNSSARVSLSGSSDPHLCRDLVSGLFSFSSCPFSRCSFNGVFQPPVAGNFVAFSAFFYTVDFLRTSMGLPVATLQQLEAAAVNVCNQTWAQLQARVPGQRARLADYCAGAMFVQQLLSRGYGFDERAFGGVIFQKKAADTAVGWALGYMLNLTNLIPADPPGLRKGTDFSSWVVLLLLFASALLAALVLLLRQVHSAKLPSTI

[7] = target: T3, Ectonucleoside triphosphate diphosphohydrolase 3 (Homo sapiens) (UniProt O75355); experiment: Inhibition of recombinant human NTPDase3 expressed in mouse NS0 cells using ADP as substrate at 30 uM incubated for 10 mins by capillary electrophoresis method relative to control
T3 sequence (whole entry): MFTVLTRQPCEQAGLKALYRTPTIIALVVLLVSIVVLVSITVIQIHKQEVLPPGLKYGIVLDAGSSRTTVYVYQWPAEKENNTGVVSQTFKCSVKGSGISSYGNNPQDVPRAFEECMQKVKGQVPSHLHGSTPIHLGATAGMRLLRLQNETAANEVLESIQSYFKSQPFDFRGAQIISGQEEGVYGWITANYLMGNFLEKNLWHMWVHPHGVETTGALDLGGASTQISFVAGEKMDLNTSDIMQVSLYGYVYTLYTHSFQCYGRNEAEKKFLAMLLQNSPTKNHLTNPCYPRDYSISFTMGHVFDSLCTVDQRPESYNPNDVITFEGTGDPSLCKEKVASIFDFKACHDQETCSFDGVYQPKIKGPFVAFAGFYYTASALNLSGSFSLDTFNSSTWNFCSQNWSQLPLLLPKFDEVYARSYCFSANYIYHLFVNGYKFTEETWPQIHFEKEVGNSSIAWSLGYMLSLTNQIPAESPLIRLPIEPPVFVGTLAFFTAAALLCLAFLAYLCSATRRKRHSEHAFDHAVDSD

[8] = tested on: Legionella pneumophila 130b; conditions: 3 uM
[9] = tested on: Legionella pneumophila 130b; conditions: 6 uM
[10] = tested on: Legionella pneumophila 130b; conditions: 3 uM; remark: listed apart in the source
[11] = tested on: Legionella pneumophila 130b; conditions: 6 uM; remark: listed apart in the source
[12] = Inhibition of Legionella pneumophila NTPDase

In the case of Nc1c(S(=O)(=O)O)cc(Nc2ccccc2)c2c1C(=O)c1ccccc1C2=O, the inhibition [1] is reported as 31%.
Work on Cc1cccc(Nc2cc(S(=O)(=O)O)c(N)c3c2C(=O)c2ccccc2C3=O)c1 yielded an inhibition [1] of 53%.
For Nc1c(S(=O)(=O)O)cc(Nc2cc3ccccc3c3ccccc23)c2c1C(=O)c1ccccc1C2=O, the inhibition [1] was 90%, the IC50 [2] was 4.24 µM and the Ki [3] was 2.99 µM. The inhibition [4] was “Active”, the IC50 [5] was 20 µM and the IC50 [6] was 3 µM. The inhibition [7] was 18%, the Km [8] was 623 µM and the Km [9] was 710 µM. The Vmax [10] was 327 µmol/min/mg and the Vmax [11] was 272 µmol/min/mg.
Nc1c(S(=O)(=O)O)cc(Nc2cccc3ccccc23)c2c1C(=O)c1ccccc1C2=O showed an inhibition [1] of 62%, an IC50 [2] of 12.2 µM and a Ki [3] of 8.59 µM.
In the case of Nc1c(S(=O)(=O)O)cc(Nc2ccccc2F)c2c1C(=O)c1ccccc1C2=O, the inhibition [1] is reported as “inactive”.
In the case of CCOP(=O)(Cc1ccc(Nc2cc(S(=O)(=O)O)c(N)c3c2C(=O)c2ccccc2C3=O)cc1)OCC, the inhibition [1] is reported as “inactive”.
Nc1c(S(=O)(=O)O)cc(Nc2cccc3cc(S(=O)(=O)O)ccc23)c2c1C(=O)c1ccccc1C2=O gave an inhibition [1] of 30%.
Compound Nc1c(S(=O)(=O)O)cc(Nc2ccc3cc(C(=O)O)ccc3c2)c2c1C(=O)c1ccccc1C2=O has an inhibition [1] of 32%.
COc1ccccc1Oc1ccc(Nc2cc(S(=O)(=O)O)c(N)c3c2C(=O)c2ccccc2C3=O)cc1 showed an inhibition [1] of 28%.
With Nc1c(S(=O)(=O)O)cc(Nc2ccc(Nc3nc(Cl)nc(Nc4ccccc4S(=O)(=O)O)n3)c(S(=O)(=O)O)c2)c2c1C(=O)c1ccccc1C2=O the inhibition [1] was 45%.
With Nc1c(S(=O)(=O)O)cc(Nc2ccc(Nc3nc(Cl)nc(Cl)n3)c(S(=O)(=O)O)c2)c2c1C(=O)c1ccccc1C2=O the inhibition [1] was 8%.
Work on CCc1ccccc1Nc1cc(S(=O)(=O)O)c(N)c2c1C(=O)c1ccccc1C2=O yielded an inhibition [1] of 39%.
Nc1c(S(=O)(=O)O)cc(Nc2cccc3c(S(=O)(=O)O)cccc23)c2c1C(=O)c1ccccc1C2=O showed an inhibition [1] of 26%.
In the case of CCCNc1cc(S(=O)(=O)O)c(N)c2c1C(=O)c1ccccc1C2=O, the inhibition [1] is reported as “inactive”.
With Cc1ccc2ccccc2c1Nc1cc(S(=O)(=O)O)c(N)c2c1C(=O)c1ccccc1C2=O the inhibition [1] was 76%, the IC50 [2] was 13.6 µM and the Ki [3] was 9.58 µM.
With Nc1c(S(=O)(=O)O)cc(NC2CCCCC2)c2c1C(=O)c1ccccc1C2=O the inhibition [1] was 22%.
Compound Nc1c(S(=O)(=O)O)cc(Nc2cccc(Br)c2)c2c1C(=O)c1ccccc1C2=O has an inhibition [1] of 44%.
Compound Cc1cc(C)c(Nc2cc(S(=O)(=O)O)c(N)c3c2C(=O)c2ccccc2C3=O)c(C)c1 has an inhibition [1] of 44%.
For Nc1c(S(=O)(=O)O)cc(Nc2ccc(Cl)cc2)c2c1C(=O)c1ccccc1C2=O, the inhibition [1] was 66%, the IC50 [2] was 17.6 µM and the Ki [3] was 12.4 µM.
With Nc1c(S(=O)(=O)O)cc(NCCc2ccccc2)c2c1C(=O)c1ccccc1C2=O the inhibition [1] was “inactive”.
In the case of CCN(CC)c1ncnc2c1ncn2[C@@H]1O[C@H](COP(=O)(O)OP(=O)(O)OC(Br)(Br)P(=O)(O)O)[C@@H](O)[C@H]1O, the Ki [12] is reported as 500 µM.
With Cc1ccccc1Nc1cc(S(=O)(=O)O)c(N)c2c1C(=O)c1ccccc1C2=O the inhibition [1] was 44%.
For Nc1c(S(=O)(=O)O)cc(Nc2cccc([N+](=O)[O-])c2)c2c1C(=O)c1ccccc1C2=O, the inhibition [1] was 44%.
Compound Nc1c(S(=O)(=O)O)cc(Nc2ccc3ccccc3c2)c2c1C(=O)c1ccccc1C2=O has an inhibition [1] of 51%.

Reference: ChEMBL document CHEMBL3826900, “Inhibitors for the bacterial ectonucleotidase Lp1NTPDase from Legionella pneumophila” (Bioorg Med Chem, 2016)
